The values below come from patent US11377418B2, “Compounds and methods for treating influenza” (Macau University of Science and Technology, priority 2020, dated 2022).

“Also recorded” adds a separate entry of the source. Read-outs that look alike come from different tables or passages of the source.

Test [1] relates to influenza A H1N1 (A/PR/8/34 virus). The test is described as follows: cytopathic effect (CPE) inhibition assay in MDCK cells. Format: cell-based.
A further test deals with NF-κB activation. The test is described as follows: NF-κB-driven luciferase reporter assay in TNF-α-induced HEK293 cells. The note with it: luciferase activity, 20 ng/mL TNF-α, compound 100, 50, 25 or 12.5 μM, 24 h, FIGS. 1 to 4. In kind it is cell-based, Human.
A further test relates to influenza virus. The test is described as follows: NF-κB signalling inhibition, effect on influenza virus titers (in vitro and in vivo).

Consider `CC(=O)OC[C@H](Cc1ccccc1)NC(=O)[C@H](Cc1ccccc1)NC(=O)c1ccccc1` [Compound 1, (S)-2-((S)-2-benzamido-3-phenylpropanamido)-3-phenylpropyl acetate, reference compound], for which inhibition in test [1] (Influenza A virus, MDCK, 48 h) was half-maximal at 74.3 µM (IC50).

`CC(=O)OC[C@H](Cc1ccccc1)NC(=O)[C@H](Cc1ccccc1)NC(=O)c1ccc(F)cc1` [Compound 3, (S)-2-((S)-2-(4-fluorobenzamido)-3-phenylpropanamido)-3-phenylpropyl acetate] came in with an IC50 in test [1] (Influenza A virus, MDCK, 48 h) of 42.4 µM. The compound `CC(=O)OC[C@H](Cc1ccc(F)cc1)NC(=O)[C@H](Cc1ccccc1)NC(=O)c1ccccc1` [Compound 4, (S)-2-((S)-2-benzamido-3-phenylpropanamido)-3-(4-fluorophenyl)propyl acetate] gave an IC50 in test [1] (Influenza A virus, MDCK, 48 h) of 29.6 µM.

For the compound `CC(=O)OC[C@H](Cc1ccccc1)NC(=O)[C@H](Cc1ccc(F)cc1)NC(=O)c1ccc(F)cc1` [Compound 5, (S)-2-((S)-2-(4-fluorobenzamido)-3-(4-fluorophenyl)propanamido)-3-phenylpropyl acetate], the IC50 in test [1] (Influenza A virus, MDCK, 48 h) was found to be 37.9 µM. The compound `CC(=O)OC[C@H](Cc1ccc(F)cc1)NC(=O)[C@H](Cc1ccc(F)cc1)NC(=O)c1ccccc1` [Compound 6, (S)-2-((S)-2-benzamido-3-(4-fluorophenyl)propanamido)-3-(4-fluorophenyl)propyl acetate] displayed an IC50 in test [1] (Influenza A virus, MDCK, 48 h) of 19.2 µM. In the test with NF-κB activation, the “inhibition towards NF-κB activation (in words)” value is listed as “strongest inhibition effect; also recorded: strong inhibitory effect”. Turning to `CC(=O)OC[C@H](Cc1ccc(F)cc1)NC(=O)[C@H](Cc1ccccc1)NC(=O)c1ccc(F)cc1` [Compound 7, (S)-2-((S)-2-(4-fluorobenzamido)-3-phenylpropanamido)-3-(4-fluorophenyl)propyl acetate], the IC50 in test [1] was 13.5 µM; in test [1] (Influenza A virus, MDCK, 48 h) it was less than 14.3 µM. In turn, `O=C(N[C@@H](Cc1ccccc1)C(=O)N[C@H](CO)Cc1ccccc1)c1ccccc1` [Compound 9, N—((S)-1-(((S)-1-hydroxy-3-phenylpropan-2-yl)amino)-1-oxo-3-phenylpropan-2-yl)benzamide, reference compound] displayed an IC50 in test [1] (Influenza A virus, MDCK, 48 h) of 34 µM. This counts as double-digit micromolar. Take `O=C(N[C@@H](Cc1ccc(F)cc1)C(=O)N[C@H](CO)Cc1ccccc1)c1ccccc1` [Compound 10, N—((S)-3-(4-fluorophenyl)-1-(((S)-1-hydroxy-3-phenylpropan-2-yl)amino)-1-oxopropan-2-yl)benzamide]: the IC50 was 14.3 µM in test [1] and less than 14.3 µM in test [1] (Influenza A virus, MDCK, 48 h). Also, the “anti-influenza virus effect (in words)” value in test [1] (CPE inhibition, MDCK cells, A/PR/8/34 (H1N1)) was “potent inhibitory effect”. Further, in the test with NF-κB activation, the “inhibition towards NF-κB activation (in words)” value is on record as “potent inhibitory effect; also recorded: strong inhibitory effect; also recorded: excellent inhibitory effects”. Compound `O=C(N[C@@H](Cc1ccccc1)C(=O)N[C@H](CO)Cc1ccccc1)c1ccc(F)cc1` [Compound 11, 4-fluoro-N—((S)-1-(((S)-1-hydroxy-3-phenylpropan-2-yl)amino)-1-oxo-3-phenylpropan-2-yl)benzamide] yielded an IC50 in test [1] (Influenza A virus, MDCK, 48 h) of 47 µM. As for `CC(C)(C)c1ccc(S(=O)(=O)/C=C/C#N)cc1` [Compound 11-7085], the “influenza virus titers (in words)” value with influenza virus is reported as “dramatic reduction of influenza virus titers”.

In test [1] (Influenza A virus, MDCK, 48 h), `O=C(N[C@@H](Cc1ccccc1)C(=O)N[C@H](CO)Cc1ccc(F)cc1)c1ccccc1` [Compound 12, N—((S)-1-(((S)-1-(4-fluorophenyl)-3-hydroxypropan-2-yl)amino)-1-oxo-3-phenylpropan-2-yl)benzamide] yielded an IC50 of 17.4 µM. In other words, the double-digit micromolar range. As for `O=C(N[C@@H](Cc1ccc(F)cc1)C(=O)N[C@H](CO)Cc1ccccc1)c1ccc(F)cc1` [Compound 13], the half-inhibitory concentration (IC50) in test [1] was 10.5 µM; in test [1] (Influenza A virus, MDCK, 48 h) it was less than 14.3 µM. Regarding `O=C(N[C@@H](Cc1ccc(F)cc1)C(=O)N[C@H](CO)Cc1ccc(F)cc1)c1ccccc1` [Compound 14, N—((S)-3-(4-fluorophenyl)-1-(((S)-1-(4-fluorophenyl)-3-hydroxypropan-2-yl)amino)-1-oxopropan-2-yl)benzamide], half-maximal inhibition in test [1] (Influenza A virus, MDCK, 48 h) (IC50) required 19.7 µM. Also, in the test with NF-κB activation, the “inhibition towards NF-κB activation (in words)” value was “strongest inhibition effect; also recorded: strong inhibitory effect”. Turning to `O=C(N[C@@H](Cc1ccccc1)C(=O)N[C@H](CO)Cc1ccc(F)cc1)c1ccc(F)cc1` [Compound 15, 4-fluoro-N—((S)-1-(((S)-1-(4-fluorophenyl)-3-hydroxypropan-2-yl)amino)-1-oxo-3-phenylpropan-2-yl)benzamide], the midpoint of inhibition in test [1] (Influenza A virus, MDCK, 48 h), the IC50, lay at 38.7 µM.

`CC(=O)Oc1ccccc1C(=O)O` [acetylsalicyclic acid (ASA), acetylsalicyclic acid]: in the test on influenza virus, the “influenza virus titers (in words)” value was “dramatic reduction of influenza virus titers”.
